Test results reported in patent publication US6479466B1, “Compositions for treating viral infections, and methods therefor” (University of Maryland, priority 1999, dated 2002).
Where two headings read alike, the source gives them in different places.

What was measured:
HTLV-IIIB [1] = assay: p24 antigen production in PHA-activated PBMCs infected with HTLV-IIIB; assay type: cell-based, HIV-1; details: for inhibition at 10 µM / IC90: Human immunodeficiency virus 1, IIIB, PBMC; for IC90: read-out: IC90 (concentration of nucleoside analog that reduced the p24 antigen value of the untreated control by 90%)
Description: The antiviral activities of RV alone and in combination with nucleoside analogs were investigated in PHA-stimulated PBMCs from seronegative donors. RV, ddC, ddI, and AZT were purchased from Sigma (St. Louis, Mo.). The HIV-1 T-cell line adapted isolate HTLV-IIIB was obtained from Dr. Gallo, at the National Institutes of Health AIDS Research and Reference Reagent Program (Catalog #398, Rockville, Md.). Primary strains of HIV-1 were isolated by coculturing 10^7 patient PBMC with an equal number of PHA-stimulated PBMC from a normal donor. Titration of stocks and MT-2 phenotype determination were carried out as described (ACTG Virology Manual, NIH Pub No. 94 3828, 1994). The SI phenotype was determined by assessing viral growth and syncytia formation in the MT-2 cell line obtained from Dr. Richman at the National Institutes of Health AIDS Research and Reference Reagent Program (Catalog #237, Rockville, Md.).
Primary PBMCs were separated from whole blood of HIV seronegative donors by density centrifugation over Ficoll-Hypaque (Sigma). The culture medium consisted of RPMI supplemented with 10% fetal bovine serum (FBS), 2 mM glutamine and penicillin/streptomycin (Gibco, Grand Island, N.Y.).
For infection studies involving PBMCs, cells were stimulated with 2.5 or 10 μg/ml phytohemagglutinin (PHA; Boehringer Mannheim, Indianapolis, Ind.) for 3 days. Stimulated PBMCs were infected by incubation with virus at a multiplicity of infection of 1000 TCID50/10^6 PBMC for 2 hours. PBMCs were then washed three times with PBS and cultured in 5% CO2 at 37° C., in RPMI/10% FBS supplemented with 10 units/ml IL-2 (Boehringer Mannheim) and drugs as appropriate. PBMCs were seeded in 96-well flat-bottom plates at a density of 2×10^5 PBMCs/200 μl. Following 3 days of culture half of the medium was replaced with fresh medium containing IL-2 and drugs. After 7 days of culture, HIV-1 p24 antigen production in the culture supernatant was assayed by ELISA (Coulter, Hialeah, Fla.). The concentration of nucleoside analog, alone and in combination with resveratrol, that reduced the p24 antigen value of the untreated control by 90% (IC90) was calculated by using nonparametric regression analysis. The analysis used the median-effect equation, Fa=1/[1+(Dm/D)]^m, where D is the dose, Fa is the fraction affected, and Dm is the dose required to produce the median effect.
Cells were infected with the T-cell tropic isolate HTLV-IIIB for 2 hours, and then cultured in varying concentrations of RV with or without nucleoside analogs. Virus replication was measured by p24 antigen production by ELISA using a standard commercial kit in the culture supernatants on days 7 and 10 after infection.
Activated PBMCs infected with HTLV-IIIB were cultured in the presence of ddI plus HU (100 μM) or RV (5 and 10 μM). […] Virus production in the presence of the different drug concentrations was evaluated on day 7 after infection.

HTLV-IIIB [2] = assay: p24 antigen in infected resting T-lymphocytes exposed to drugs for 6 days before PHA activation; assay type: cell-based, HIV-1
Description: The effect of RV and nucleoside analogues in infected resting T-lymphocytes was evaluated in the present example. Purified resting cells were used. Absence of activated lymphocytes in the preparation was determined by incubation of the cells in the presence of a monoclonal antibody directed against the low affinity IL-2 receptor CD25 (Pharmingen, San Diego, Calif.), and subsequent analysis by flow cytometry. […] Cells were infected with HTLV-IIIB at a multiplicity of infection of 10^4 TCID50/10^6 cells for 3 hours. A high multiplicity of infection (m.o.i.) was used because of a reported short half life of HIV-1 unintegrated DNA in infected resting lymphocytes. Infected cells were washed 3 times with PBS to remove virus excess and resuspended in 10% FBS RPMI medium supplemented with drugs. To ensure that any antiviral activity exerted by the drugs occurred during the resting state, drugs were removed six days after infection by washing with PBS 3 times, and cells were activated by culturing in the presence of PHA for 2 days. Cells were then cultured in IL-2 medium without drugs, and supernatants were monitored for the presence of p24 antigen. Cultures were maintained for 20 days.
Purified resting T-lymphocytes from a seronegative donor were infected with HTLV-IIIB at the high multiplicity of infection and cultured in the presence of 5 or 10 μM RV plus ddI (0, 0.25, 0.5 μM), ddC (0, 0.1 μM) or AZT (0, 4 μM) for 6 days. Concentrations used for ddC and AZT correspond to the highest, nontoxic concentration attainable in plasma of treated individuals. […] On day 6 after infection, drugs were washed away and cells were activated with PHA. The extent of viral replication was evaluated on day 6 (prior to PHA activation) and days 14 and 20 after infection. On day 6 very low amounts of p24 antigen could be detected under every condition tested, likely representing residual virus from the infecting inoculum. […] No toxicity was found by the MTT assay in uninfected culture controls treated with 5 μM RV and 0.5 μM ddI for 20 days under the same conditions.

SMILES	inhibition at 10 µM (HTLV-IIIB [1]; 168 h, 10 μM RV combined with 0.5 μM ddI, day 7, read-out: inhibition of virus replication) [%]	inhibition at 10 µM (HTLV-IIIB [1]; 168 h, 10 μM RV in combination with 0.25 μM ddI, day 7, read-out: inhibition of HIV-1 replication) [%]	inhibition at 10 µM (HTLV-IIIB [1]; RV 10 μM alone, read-out: inhibition of viral replication) [%]	reduction of virus production (HTLV-IIIB [1]; RV 5 μM alone)	virus production on days 14 and 20 following PHA activation (HTLV-IIIB [2]; RV alone (5 or 10 μM))	IC90 (HTLV-IIIB [1]; 168 h, in combination with 5 μM RV, day 7) [µM]	IC90 (HTLV-IIIB [1]; 168 h, nucleoside analog alone, day 7) [µM]	increase in antiviral activity (HTLV-IIIB [1]; addition of 10 μM RV to 2 μM ddI) [fold]	reduction of IC90 value (HTLV-IIIB [1]; in combination with 5 μM RV) [fold]	reduction of IC90 value (HTLV-IIIB [1]; in the presence of 10 μM RV) [fold]	virus production (HTLV-IIIB [2]; ddI 1 μM, previous studies under these conditions)	viral replication after PHA activation (HTLV-IIIB [2]; ddI by itself (0.25, 0.5 μM))
Oc1ccc(/C=C/c2cc(O)cc(O)c2)cc1 [RV, trans-3, 4′, 5-trihydroxystilbene]	> 99	94	~30	approximately 10%	considerable virus production	–	–	–	–	–	–	–
OC[C@@H]1CC[C@H](n2cnc3c(O)ncnc32)O1 [ddI, 2′,3′-dideoxyinosine]	–	–	–	–	–	1.3	7.5	200	5.7	17.8	completely suppress virus production	did not suppress viral replication
